Earlier results in US8710097B2, “Flavonoid dimers and methods of making and using such” (The Hong Kong Polytechnic University, priority 2006, dated 2014).

Tested on: Ltrmdr1
Conditions: literature; cited from earlier work

COc1ccc(-c2oc3c(CC=C(C)C)c(O)cc(O)c3c(=O)c2O)cc1 [8-dimethylallylkaempferide]
modulation (inhibition of Ltrmdr1) compared with cyclosporine A or verapamil: better modulator than either cyclosporine A or verapamil
